# Laboratory results from patent US20150307841A1, “Composition for Promoting Differentiation and Proliferation of Neural Stem Cell and Neural Precursor Cell” (priority 2014, published 2015).
# Entries after “also recorded” stand apart in the source; their conditions may differ.
# Tested on: GAD67-, VGluT1-, ChAT-positive neurons and OX42 reactive microglia in the hippocampus
# Test: Immunohistochemical analysis of GAD67, VGluT1, ChAT, OX42 in hippocampus (Experimental Example 1)
# Type: in vivo, rat
# Procedure: Immunostaining was carried out using antibodies against VGluT1 (diluted 1:500, Chemicon), ChAT (1:500, Chemicon), GFAP (1:1,000, Chemicon), tyrosine hydroxylase (TH, 1:500, Chemicon) and OX42 (CD11b/c, 1:250, Serotec) as primary antibodies instead of the anti-BrdU antibodies used in (4). The other process was the same as in (4), except that incubation was performed at 37° C. for 30 minutes in 2 N HCl.
# In the immunohistochemical analysis, the number of the cells immnunostained against each antibody was counted from 5 or 6 hippocampal coronal sections. For each staining analysis, every fifth cryosections of the hippocampal region of brain tissues (AP: bregma −4.5 to −4.3 mm) were taken for immunostaining. The number of the immnunostained cells was represented as an average of number of cells in the hippocampal region of one brain slice.
# The number of the VGluT1- and GAD-positive cells in the brain slice samples 1 week and 4 weeks after the administration of soyasaponin I was presented per microscopic field (×400-VGluT1, ×800-GAD67) and the number of the ChAT-positive cells was presented per each hippocampal region (10-12 confocal laser microscopic fields). 5-11 animals were used per group. Western blotted membranes were analyzed using the multi-gauge, bio-imaging program on LAS-4000 Mini (Fujifilm Life Science, Stamford, Conn., USA). Densitometeric analysis of the expression ratios of VGluT1/β-actin, GAD65/67/β-actin and ChAT/β-actin was normalized to the vehicle group.
structure (smiles),measurement,setting,value
C[C@@H]1O[C@@H](O[C@H]2[C@H](O[C@H]3[C@H](O[C@H]4CC[C@@]5(C)[C@@H](CC[C@]6(C)[C@@H]5CC=C5[C@@H]7CC(C)(C)C[C@@H](O)[C@]7(C)CC[C@]56C)[C@@]4(C)CO)O[C@H](C(=O)O)[C@@H](O)[C@@H]3O)O[C@H](CO)[C@H](O)[C@@H]2O)[C@H](O)[C@H](O)[C@H]1O [soyasaponin I],Number of VGluT1-positive cells,10 mg/kg oral,57.33±2.43 cells per microscopic field
same,Number of VGluT1-positive cells compared to the IBO group,"5, 10, 20 mg/kg oral",increased up to the level of the normal group
same,OX42 (reactive microglia) intensity normalized to the normal group,"DG and CA1 regions, 5, 10, 20 mg/kg",decreased in a dose-dependent manner; also recorded: decreased again to the level of the normal model
